Test results as given in patent publication US12472166B2, “Inhibition of mycobacterial type VII secretion” (priority 2019, dated 2025).
Where two headings read alike, the source gives them in different places.

Key:
M. tuberculosis = experiment: microbe, parasite or virus in culture; type: cell-based; settings: for IC50: read-out: IC50 (μM) M.tb/REMA; for IC90: read-out: IC90 (μM) M.tb/REMA; for increase of activity as compared to compound I-12: tested on M. tuberculosis
[1] = human, microsomes, pH 7.4; for Compound remaining (%): 0.5 h
in vitro = settings: human, microsomes, pH 7.4
M. tuberculosis H37Rv WT = experiment: THP-1 macrophage infection study, CFU counting; type: cell-based, Mycobacterium tuberculosis; settings: for activity compared with Ethambutol (EMB) / activity compared with Streptomycin (STR) / reduction of bacteria as compared to the DMSO control: 10 μM
zebrafish embryos = settings: in vivo
[2] = tested on: M. marinum WT bacteria expressing rfp; settings: 10 μM
Description: To assess anti-bacterial activity of the compounds in an animal model, zebra-fish embryos were infected by injection of WT M. marinum into the cardinal vein. The bacteria express rfp, which enables the quantification of infection in vivo by measuring red fluorescence. After injection of the bacteria into the fish, the infection was allowed to establish for 20 h. Then, the test compounds or DMSO control were added for three days before the infection was quantified by measuring fluorescence in each fish. […] Dechorionated zebra fish embryos were one day post fertilization infected by microinjection into the cardinal vein with 70 M. marinum WT bacteria expressing rfp. 20 h after infection, the compounds were added to the fish water at the indicated concentrations. After 4 days post infection the fish were imaged on a fluorescent microscope (A) and red pixels were quantified (B). As control served non-treated fish and non-infected fish. The fish water of all groups contained equal amounts of DMSO. Each data point represents a single fish. […] Statistical analysis was determined by ANOVA testing by comparing each group to the non-treated group of fish. p>0.05, not significant, not indicated. p<0.05=*, p<0.01=**, p<0.001=***.

M. marinum = type: cell-based
[3] = Mycobacterium tuberculosis, 168 h, replicating M. tuberculosis, seven days, 37° C.
[4] = Mycobacterium tuberculosis, concentration that reduced bacterial viability to lower than 10%
[5] = THP-1 macrophages, MOI 1, day 5
[6] = Mycobacterium tuberculosis, 168 h

| SMILES | IC50 (M. tuberculosis; [3]) | IC90 (M. tuberculosis; [4]) | further results |
| --- | --- | --- | --- |
| CCCCNC(=O)CSc1nc(-c2ccc(OC)cc2)ns1 [Compound I-14] | 0.496 µM | 1.25 µM |  |
| COc1cccc(-c2nsc(SCC(=O)NC3CCCC3)n2)c1 [Compound I-8] | 0.076 µM | 1.25 µM |  |
| COc1ccc(-c2nsc(SCC(=O)NC3CCCCC3)n2)cc1 [Compound I-22] | 0.663 µM | 2.5 µM |  |
| O=C(CSc1nc(-c2ccc(Cl)cc2)ns1)NCCC(F)(F)F [Compound I-37] | 0.116 µM | 0.31 µM | Compound remaining (%) [1]: 55%; Half-life [1]: 34.8 min; CLint scaled (in vitro): 18 mL/min/kg |
| COc1ccc(-c2nsc(SCC(=O)OC3CCCC3)n2)cc1 [Compound I-25] | 0.526 µM | 5 µM |  |
| O=C(CSc1nc(-c2ccccc2)ns1)NC1CCCC1 [Compound I-5] |  |  | IC50 (M. tuberculosis): 0.256 µM; IC90 (M. tuberculosis): 0.63 µM; increase of activity as compared to compound I-12 (M. tuberculosis): two-fold; concentration required to reduce the bacterial load below the initial amount on day 0 (M. tuberculosis H37Rv WT; [5]): 10 µM; concentration with significant decrease of bacterial load as compared to the DMSO control (M. tuberculosis H37Rv WT; [5]): 3 µM; Half-life ([1]; 15 μM): 70.8 min; Compound remaining (%) [1]: 75%; CLint scaled at 15 μM (in vitro): 8.78 mL/min/kg |
| COc1ccc(-c2nsc(SCC(=O)Nc3cnccn3)n2)cc1 [Compound I-24] | 4.1 µM | 2.5 µM |  |
| CCOC(=O)CNC(=O)CSc1nc(-c2ccccc2)ns1 [Compound I-41, reference compound] |  |  | IC50 (M. tuberculosis; [6]): 0.269 µM; IC90 (M. tuberculosis; Mycobacterium tuberculosis): 0.63 µM; toxicity (survival of zebra fish embryos scored by heartbeat) (zebrafish embryos): toxic |
| Cc1cccc(-c2nsc(SCC(=O)N3CCCCC3)n2)c1 [Compound I-18, reference compound] | 0.251 µM | 2.5 µM |  |
| CCOC(=O)CNC(=O)CSc1nc(-c2cccc(C)c2)ns1 [Compound I-40, reference compound] |  |  | IC50 (M. tuberculosis; [6]): 0.169 µM; IC90 (M. tuberculosis; Mycobacterium tuberculosis): 0.31 µM; toxicity (survival of zebra fish embryos scored by heartbeat) (zebrafish embryos): toxic |
| CCCCCNC(=O)CSc1nc(-c2ccc(OC)cc2)ns1 [Compound I-2] | 0.098 µM | 0.31 µM |  |
| O=C(CSc1nc(-c2cccnc2)ns1)NC1CCCC1 [Compound I-19] | 0.502 µM | 2.5 µM |  |
| CCCNC(=O)CSc1nc(-c2ccc(OC)cc2)ns1 [Compound I-3] | 0.123 µM | 0.63 µM | increase of activity as compared to compound I-12 (M. tuberculosis): four-fold; activity compared with Ethambutol (EMB) (M. tuberculosis H37Rv WT): as active as EMB; activity compared with Streptomycin (STR) (M. tuberculosis H37Rv WT): higher activity than STR; reduction of bacteria as compared to the DMSO control (M. tuberculosis H37Rv WT): approximately 100 fold; concentration with significant decrease of bacterial load as compared to the DMSO control (M. tuberculosis H37Rv WT; [5]): 1 µM; Half-life ([1]; 15 μM): 9 min; Compound remaining (%) [1]: 11%; bacterial fluorescence [2]: reduction of bacterial fluorescence to background levels; CLint scaled at 15 μM (in vitro): 67.4 mL/min/kg |
| COc1ccc(-c2nsc(SCC(=O)NCCC(F)(F)F)n2)cc1 [Compound I-34] | 0.038 µM | 0.31 µM |  |
| COCCNC(=O)CSc1nc(-c2ccc(OC)cc2)ns1 [Compound I-4] | 0.133 µM | 0.63 µM |  |
| CCCNC(=O)CSc1nc(-c2ccc(Cl)cc2)ns1 [Compound I-36] | 0.058 µM | 0.16 µM | Half-life ([1]; 15 μM): 43.2 min; Compound remaining (%) [1]: 62%; CLint scaled at 15 μM (in vitro): 14.4 mL/min/kg |
| COc1ccc(-c2nsc(SCC(=O)N3CCOCC3)n2)cc1 [Compound I-15] | 0.121 µM | 2.5 µM |  |
| CCCNC(=O)COc1nc(-c2ccccc2)ns1 [Compound I-42] | > 10 µM | > 10 µM |  |
| Cc1cccc(-c2nsc(SCC(=O)NCC3CCCO3)n2)c1 (stereo not drawn) [Compound I-39, reference compound] |  |  | IC50 (M. tuberculosis; [6]): 0.248 µM; IC90 (M. tuberculosis; Mycobacterium tuberculosis): 0.63 µM; toxicity (survival of zebra fish embryos scored by heartbeat) (zebrafish embryos): least toxic of the comparative compounds |
| COc1ccc(-c2nsc(SCC(=O)Nc3ccccn3)n2)cc1 [Compound I-20] | 0.502 µM | 2.5 µM |  |
| O=C(COc1nc(-c2ccccc2)ns1)NC1CCCC1 [Compound I-33] | 7.85 µM | 10 µM | Half-life ([1]; 15 μM): 61.8 min; Compound remaining (%) [1]: 72%; CLint scaled at 15 μM (in vitro): 10.1 mL/min/kg |

| SMILES | IC50 (M. tuberculosis; [3]) | IC90 (M. tuberculosis; [4]) | further results |
| --- | --- | --- | --- |
| COc1ccc(-c2nsc(SCC(=O)NCC3CCCC3)n2)cc1 [Compound I-38, reference compound] |  |  | IC50 (M. tuberculosis; [6]): 0.447 µM; IC90 (M. tuberculosis; Mycobacterium tuberculosis): 1.25 µM; toxicity (survival of zebra fish embryos scored by heartbeat) (zebrafish embryos): somewhat less toxic than I-40 and I-41 |
| CO[C@H]1/C=C/O[C@@]2(C)Oc3c(C)c(O)c4c(O)c(c(/C=N/N5CCN(C)CC5)c(O)c4c3C2=O)NC(=O)/C(C)=C\C=C\[C@H](C)[C@H](O)[C@@H](C)[C@@H](O)[C@@H](C)[C@H](OC(C)=O)[C@@H]1C [Rifampin, reference compound] |  |  | bacterial viability (REMA) readout, control condition (M. marinum): negative |
| CNC(=O)CSc1nc(-c2ccc(OC)cc2)ns1 [Compound I-27] | 1.85 µM | 5 µM |  |
| O=C(CSc1nc(-c2ccccc2)ns1)NCCC(F)(F)F [Compound I-35] | 0.224 µM | 0.63 µM | Half-life ([1]; 15 μM): 48.6 min; Compound remaining (%) [1]: 65%; CLint scaled at 15 μM (in vitro): 12.8 mL/min/kg |
| CCNC(=O)CSc1nc(-c2ccccc2)ns1 [Compound I-10] | 0.383 µM | 1.25 µM |  |
| COc1ccc(-c2nsc(SCC(=O)N3CCCCC3)n2)cc1 [Compound I-11] | 0.531 µM | 1.25 µM |  |
| COc1ccc(-c2nsc(SCC(=O)NC(C)(C)C)n2)cc1 [Compound I-32] | 0.109 µM | > 10 µM |  |
| CCCNC(=O)CSc1nc(-c2ccccc2)ns1 [Compound I-1] | 0.083 µM | 0.16 µM | increase of activity as compared to compound I-12 (M. tuberculosis): eight-fold; activity compared with Ethambutol (EMB) (M. tuberculosis H37Rv WT): as active as EMB; activity compared with Streptomycin (STR) (M. tuberculosis H37Rv WT): higher activity than STR; reduction of bacteria as compared to the DMSO control (M. tuberculosis H37Rv WT): approximately 100 fold; concentration with significant decrease of bacterial load as compared to the DMSO control (M. tuberculosis H37Rv WT; [5]): 1 µM; Half-life ([1]; 15 μM): 45.6 min; Compound remaining (%) [1]: 64%; CLint scaled at 15 μM (in vitro): 13.6 mL/min/kg |
| COc1ccc(-c2nsc(SCC(=O)Nc3ccccc3)n2)cc1 [Compound I-21] | 0.559 µM | 2.5 µM |  |
| CCCC(C)NC(=O)CSc1nc(-c2ccc(OC)cc2)ns1 (stereo not drawn) [Compound I-29] | 1.25 µM | 10 µM |  |
| O=C(CSc1nc(-c2ccncc2)ns1)NC1CCCC1 [Compound I-23] | 0.762 µM | 2.5 µM |  |
| C=CCNC(=O)CSc1nc(-c2ccc(OC)cc2)ns1 [Compound I-6] |  |  | IC50 (M. tuberculosis; [6]): 0.291 µM; IC90 (M. tuberculosis; Mycobacterium tuberculosis): 0.63 µM |
| O=C(CSc1nc(-c2ccccc2)ns1)NC1CCCC1 [Compound I-26] | 1.17 µM | 5 µM |  |
| Cc1cccc(-c2nsc(SCC(=O)NC3CCCC3)n2)c1 [Compound I-16] | 0.121 µM | 2.5 µM |  |
| COc1ccc(-c2nsc(SCC(=O)NCc3ccccc3)n2)cc1 [Compound I-30] | 2.42 µM | 10 µM |  |
| COc1ccc(-c2nsc(SCC(=O)NC3CC3)n2)cc1 [Compound I-13] | 0.478 µM | 1.25 µM |  |
| O=C(CSc1nc(-c2ccccc2)no1)NC1CCCC1 [Compound I-31] |  |  | growth of M. tuberculosis (M. tuberculosis; 10 μM): inhibited growth; IC50 (M. tuberculosis): 2.71 µM; IC90 (M. tuberculosis): 10 µM |
| O=C(CSc1nc(-c2ccc(Cl)cc2)ns1)NC1CCCC1 [Compound I-17] | 0.21 µM | 2.5 µM |  |
| COc1ccc(-c2nsc(SCC(=O)NC(C)C)n2)cc1 [Compound I-9] | 0.152 µM | 1.25 µM |  |
| C#CCNC(=O)CSc1nc(-c2ccc(OC)cc2)ns1 [Compound I-7] | 0.306 µM | 0.63 µM |  |
| O=C(CSc1nc(-c2ccccc2)no1)NC1CCCC1 [Compound I-28] |  |  | IC50 (M. tuberculosis; [6]): 2.11 µM; IC90 (M. tuberculosis; Mycobacterium tuberculosis): 5 µM |
